# Test results reported in US12552790B2, “Positive modulators of the muscarinic acetylcholine receptor M4” (Vanderbilt University, priority 2023, dated 2026).
# Tests used:
# Human M2 = molecular target: T1, Human M2 (Homo sapiens, UniProt P08172); assay: M2 cell-based functional assay, calcium mobilization (selectivity); details: for Emax at 30 µM: % ACh maximum at 30 μM
# T1 construct: expressed in transfected cells; host or cells: CHO-K1
# T1 sequence (P08172 1-466): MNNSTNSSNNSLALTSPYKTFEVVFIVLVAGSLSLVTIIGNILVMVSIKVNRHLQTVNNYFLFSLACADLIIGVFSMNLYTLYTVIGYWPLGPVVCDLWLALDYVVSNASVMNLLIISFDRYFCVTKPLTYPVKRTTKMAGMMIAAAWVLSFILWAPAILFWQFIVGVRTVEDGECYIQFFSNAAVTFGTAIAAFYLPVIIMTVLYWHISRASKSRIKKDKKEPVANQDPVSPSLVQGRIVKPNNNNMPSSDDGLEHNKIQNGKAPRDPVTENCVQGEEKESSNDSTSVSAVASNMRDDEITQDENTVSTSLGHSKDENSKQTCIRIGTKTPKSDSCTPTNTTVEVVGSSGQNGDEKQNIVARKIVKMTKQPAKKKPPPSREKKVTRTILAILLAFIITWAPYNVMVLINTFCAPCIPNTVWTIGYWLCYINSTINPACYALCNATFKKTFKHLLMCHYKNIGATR
# Protocol: (§1) The high throughput assay was employed to measure receptor-induced mobilization of intracellular calcium to determine compound activity. Test compound was added to cells expressing the muscarinic receptors that were loaded with calcium sensitive fluorescent dye. After a ˜2.5 minute incubation period, a submaximal (EC20) concentration of acetylcholine was added, and the response measured. This kinetic assay allows for simultaneous screening and potency determination of multiple pharmacological modes of action including agonist and potentiator activity. CHO-K1 cells stably expressing muscarinic receptors were plated in growth medium lacking G418 and hygromycin at 15,000 cells/20 μL/well in Greiner 384-well black-walled, tissue culture (TC)-treated, clear-bottom plates (Greiner Bio-One). Cells were incubated overnight at 37° C. and 5% CO2. The next day, calcium assay buffer (Hank's balanced salt solution (HBSS), 20 mM HEPES, 2.5 mM Probenecid, 4.16 mM sodium bicarbonate (Sigma-Aldrich, St. Louis, MO)) was prepared to dilute compounds, agonists, and Fluo-4-acetomethoxyester (Fluo-4-AM), fluorescent calcium indicator dye. Compounds were serially diluted 1:3 into 10 point concentration response curves in DMSO using the Bravo Liquid Handler (Agilent, Santa Clara, CA), transferred to a 384 well daughter plates using an Echo acoustic liquid handler (Beckman Coulter, Indianapolis, Indiana), and diluted in assay Buffer to a 2× final concentration. The agonist plates were prepared using acetylcholine (ACh, Sigma-Aldrich, St. Louis, MO) concentrations for the EC20 and ECMAX responses by diluting in assay buffer to a 5× final concentration. The 2× dye solution (2.3 μM) was prepared by mixing a 2.3 mM Fluo-4-AM stock in DMSO with 10% (w/v) pluronic acid F-127 in a 1:1 ratio in assay buffer. Using a microplate washer (BioTek, Winooski, VT), cells were washed with assay buffer for 3 times to remove medium. After the final wash, 20 μL of assay buffer remained in the cell plates. Immediately, 20 μL of the 2× dye solution (final 1.15 μM) was added to each well of the cell plate using a Multidrop Combi dispenser (Thermo Fisher, Waltham, MA). After cells were incubated with the dye solutions for 45 min at 37° C. in the presence of 5% CO2, the dye solutions were removed and replaced with assay buffer using a microplate washer, leaving 20 μL of assay buffer in the cell plate.
# The prepared compound, agonist, and cell plates were placed inside the Functional Drug Screening System uCell (FDSS uCell, Hamamatsu, Japan) to measure the calcium flux. The triple add protocol was used to measure Ca kinetics; Compound, ACh for EC20, and ACh for EC80 adds in an order. Briefly, after establishment of a fluorescence baseline for 2 seconds (excitation, 480 nm; emission, 530 nm), first add occurred by adding 20 μL of test compound to the cells, and the response was measured for 140 seconds. This is followed by second add; 10 μL (5×) of an EC20 concentration of ACh agonist was added to the cells, and the response of the cells was measured for 125 seconds. Immediately, the third add occurred by adding […] (5×) of an EC80 concentration of ACh and the response of the cells was measured for 90 seconds. Acetylcholine-mediated maximum response (ECmax) was measured by adding 1 mM ACh as third add in the control wells. DMSO vehicle was added to the control wells in the first add for assessing ACh EC20, EC80, and ECmax responses. Calcium fluorescence was recorded as fold over basal fluorescence and raw data were normalized to the maximal response to ACh agonist. Agonist activity was analyzed as a concentration-dependent increase in calcium mobilization upon compound addition. Positive allosteric modulator activity was analyzed as a concentration-dependent increase in the EC20 acetylcholine response. Antagonist activity was analyzed as a concentration-dependent decrease in the EC80 acetylcholine response. […]
# Human M4 = molecular target: T2, Human M4 (Homo sapiens, UniProt P08173); assay: M4 cell-based functional assay, calcium mobilization, potentiation of ACh EC20; details: for Emax at 30 µM: % ACh maximum at 30 μM; for EC50: CHO-K1 hM4-Gqi5 cells, calcium flux, ACh EC20
# T2 construct: expressed in transfected cells
# T2 sequence (P08173 1-479): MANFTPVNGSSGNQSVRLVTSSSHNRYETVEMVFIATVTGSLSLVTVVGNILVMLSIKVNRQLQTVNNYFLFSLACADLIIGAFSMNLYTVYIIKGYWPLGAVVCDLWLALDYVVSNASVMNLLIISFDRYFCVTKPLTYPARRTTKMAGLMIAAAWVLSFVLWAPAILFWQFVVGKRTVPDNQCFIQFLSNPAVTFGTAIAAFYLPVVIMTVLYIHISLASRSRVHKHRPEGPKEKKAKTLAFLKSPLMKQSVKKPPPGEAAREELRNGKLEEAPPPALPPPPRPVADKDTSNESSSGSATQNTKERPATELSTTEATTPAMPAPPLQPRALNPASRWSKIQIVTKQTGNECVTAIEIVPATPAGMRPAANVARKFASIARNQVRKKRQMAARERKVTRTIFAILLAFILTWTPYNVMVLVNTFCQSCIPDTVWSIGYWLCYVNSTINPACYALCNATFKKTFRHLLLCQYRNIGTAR
# Protocol: Human and rat M4 cDNAs, along with the chimeric G protein Gqi5, were transfected into Chinese hamster ovary (CHO-K1) cells purchased from the American Type Culture Collection using Lipofectamine2000. The transfected cells were subjected to selection antbiotic treatment to generate stable cell lines; G418 sulfate (1 mg/ml) for selecting M4 expressing cells and Hygromycin B (500 μg/mL) for selecting Gqi5 expressing cells. The resulting polyclones were further screened to obtain monoclones of hM4-Gqi5 and rM4-Gqi5 for compound screening assay. Stable monoclone cells were maintained in Ham's F-12 medium containing 10% heat-inactivated fetal bovine serum (FBS), 1× Antibiotic/Antimycotic, 20 mM HEPES, 500 μg/mL G418 sulfate, and 200 μg/mL Hygromycin B in 37° C. humidified incubators in the presence of 5% CO2.
# as §1
# The prepared compound, agonist, and cell plates were placed inside the Functional Drug Screening System uCell (FDSS uCell, Hamamatsu, Japan) to measure the calcium flux. The triple add protocol was used to measure Ca kinetics; Compound, ACh for EC20, and ACh for EC80 adds in an order. Briefly, after establishment of a fluorescence baseline for 2 seconds (excitation, 480 nm; emission, 530 nm), first add occurred by adding 20 μL of test compound to the cells, and the response was measured for 140 seconds. This is followed by second add; 10 μL (5×) of an EC20 concentration of ACh agonist was added to the cells, and the response of the cells was measured for 125 seconds. […]
# [1] = M2 cell-based functional assay, calcium flux
Structure (SMILES),Emax at 30 µM (Human M2) [%],EC50 (Human M2; [1]) [µM],Emax at 30 µM (Human M4) [%],EC50 (Human M4) [µM],Human M2 EC50 (Human M2; [1])
"[2H]C1([2H])CC(Oc2ccc3c(c2)OC([2H])([2H])C([2H])([2H])O3)CC([2H])([2H])N1c1nc2c(cc1C)C(=O)NC2 [Compound 2, 2-(4-((2,3-dihydrobenzo[b][1,4]dioxin-6-yl-2,2,3,3-d4)oxy)piperidin-1-yl-2,2,6,6-d4)-3-methyl-6,7-dihydro-5H-pyrrolo[3,4-b]pyridin-5-one]",57,0.567,91,0.003,
"[2H]C1([2H])Oc2ccc(O[C@H]3CCN(c4nc5c(cc4C)C(=O)NC5)[C@H](C)C3)cc2OC1([2H])[2H] [Compound 4, 2-((2R,4S)-4-((2,3-dihydrobenzo[b][1,4]dioxin-6-yl-2,2,3,3-d4)oxy)-2-methylpiperidin-1-yl)-3-methyl-6,7-dihydro-5H-pyrrolo[3,4-b]pyridin-5-one]",57,5.87,85,0.011,
"[2H]C1(Oc2ccc3c(c2)OCCO3)CCN(c2nc3c(cc2C)C(=O)NC3)CC1 [Compound 10, 2-(4-((2,3-dihydrobenzo[b][1,4]dioxin-6-yl)oxy)piperidin-1-yl-4-d)-3-methyl-6,7-dihydro-5H-pyrrolo[3,4-b]pyridin-5-one]",60,0.33,93,0.003,
"[2H]C1([2H])CC(Oc2ccc3c(c2)OCCO3)CC([2H])([2H])N1c1nc2c(cc1C)C(=O)NC2 [Compound 11, 2-(4-((2,3-dihydrobenzo[b][1,4]dioxin-6-yl)oxy)piperidin-1-yl-2,2,6,6-d4)-3-methyl-6,7-dihydro-5H-pyrrolo[3,4-b]pyridin-5-one]",60,0.508,73,0.005,
"[2H]C1([2H])Oc2ccc(OC3CCN(c4nc5c(c(C)c4C)C(=O)N(C)C5)CC3)cc2OC1([2H])[2H] [Compound 12, 2-(4-((2,3-dihydrobenzo[b][1,4]dioxin-6-yl-2,2,3,3-d4)oxy)piperidin-1-yl)-3,4,6-trimethyl-6,7-dihydro-5H-pyrrolo[3,4-b]pyridin-5-one]",54,2.38,103,0.007,

# Second part, the molecule after the results:
Emax at 30 µM (Human M2) [%],EC50 (Human M2; [1]) [µM],Emax at 30 µM (Human M4) [%],EC50 (Human M4) [µM],Human M2 EC50 (Human M2; [1]),Structure (SMILES)
69,0.346,108,0.003,,"[2H]C1(Oc2ccc3c(c2)OC([2H])([2H])C([2H])([2H])O3)CCN(c2nc3c(cc2C)C(=O)NC3)CC1 [Compound 1, 2-(4-((2,3-dihydrobenzo[b][1,4]dioxin-6-yl-2,2,3,3-d4)oxy)piperidin-1-yl-4-d)-3-methyl-6,7-dihydro-5H-pyrrolo[3,4-b]pyridin-5-one]"
70,0.219,76,0.004,,"[2H]C1([2H])Oc2ccc(OC3CCN(c4nc5c(cc4C)C(=O)N(C)C5)CC3)cc2OC1([2H])[2H] [Compound 5, 2-(4-((2,3-dihydrobenzo[b][1,4]dioxin-6-yl-2,2,3,3-d4)oxy)piperidin-1-yl)-3,6-dimethyl-6,7-dihydro-5H-pyrrolo[3,4-b]pyridin-5-one]"
64,0.867,78,0.009,,"[2H]C1([2H])Oc2ccc(OC3CCN(c4nc5c(cc4C)C(=O)N(C4CC4)C5)CC3)cc2OC1([2H])[2H] [Compound 6, 6-cyclopropyl-2-(4-((2,3-dihydrobenzo[b][1,4]dioxin-6-yl-2,2,3,3-d4)oxy)piperidin-1-yl)-3-methyl-6,7-dihydro-5H-pyrrolo[3,4-b]pyridin-5-one]"
53,3.75,76,0.065,,"[2H]C1([2H])Oc2ccc(OC3CCN(c4nc5c(cc4C)C(=O)N(C4CCCC4)C5)CC3)cc2OC1([2H])[2H] [Compound 7, 6-cyclopentyl-2-(4-((2,3-dihydrobenzo[b][1,4]dioxin-6-yl-2,2,3,3-d4)oxy)piperidin-1-yl)-3-methyl-6,7-dihydro-5H-pyrrolo[3,4-b]pyridin-5-one]"
56,0.494,104,0.003,,"[2H]C1([2H])Oc2ccc(OC3CCN(c4nc5c(cc4C)C(=O)OC5)CC3)cc2OC1([2H])[2H] [Compound 8, 2-(4-((2,3-dihydrobenzo[b][1,4]dioxin-6-yl-2,2,3,3-d4)oxy)piperidin-1-yl)-3-methylfuro[3,4-b]pyridin-5(7H)-one]"
57,2.24,91,0.027,,"[2H]C1([2H])Oc2ccc(OC3CCN(c4nc5c(cc4C)C(=O)OC5C)CC3)cc2OC1([2H])[2H] (centres unmarked) [Compound 9, 2-(4-((2,3-dihydrobenzo[b][1,4]dioxin-6-yl-2,2,3,3-d4)oxy)piperidin-1-yl)-3,7-dimethylfuro[3,4-b]pyridin-5(7H)-one]"
,,101,0.004,inactive,"[2H]C1([2H])Oc2ccc(OC3CCN(c4nc5c(c(C)c4C)C(=O)NC5)CC3)cc2OC1([2H])[2H] [Compound 13, 2-(4-((2,3-dihydrobenzo[b][1,4]dioxin-6-yl-2,2,3,3-d4)oxy)piperidin-1-yl)-3,4-dimethyl-6,7-dihydro-5H-pyrrolo[3,4-b]pyridin-5-one]"
